Source: patent US20220378739A1, “NATURAL KILLER CELL IMMUNOTHERAPY FOR THE TREATMENT OF GLIOBLASTOMA AND OTHER CANCERS” (BOARD OF REGENTS, THE UNIVERSITY OF TEXAS SYSTEM, priority 2019, published 2022)
“Also recorded” adds a separate entry of the source.

Experiments:
[1] = tested on: TiNKs / HC-NK cells rendered dysfunctional by GSCs; assay: Reversal of established NK cell dysfunction (TiNKs ex vivo; NK cell recovery assays); type: cell-based, human
Experimental: FIGS. 11A-11G. […] (FIG. 11A) NK cells were incubated with or without galunisertinib (10 μM) or LY2109761 (10 μM) for 48 hours. Representative zebra plots show their CD107a, IFN-γ, and TNF-α response to K562 targets. NK cells were gated on CD3-CD56+ lymphocytes. Inset numbers are the percentages of CD107a-, IFN-γ- or TNF-α-positive NK cells within the gated NK cell population. (FIGS. 11B-11C) NK cells were cultured either alone or with GSCs in a 1:1 ratio with or without LY2109761 or galunisertib for 48 hrs. Representative zebra plots and summary box plots show their CD107, IFN-γ, and TNF-α expression response to K562 (FIG. 11B) or GSC (FIG. 11C) targets. Effector:target ratio is 5:1. NK cells were defined as CD3-CD56+ lymphocytes. Inset numbers are the percentages of CD107a-, IFN-γ- or TNF-α-positive NK cells (n=7, n=4 respectively). (FIG. 11D) TiNK cells were cultured for 24 hours in media with 5 ng/ml IL-15 with or without galunisertib. Representative zebra plots and bar graph summary show their CD107, IFN-γ, and TNF-α response to K562 targets. Effector:target ratio is 5:1. NK cells were gated on CD3-CD56+ lymphocytes. Inset numbers are the percentages of CD107a-, IFN-γ- or TNF-α-positive NK cells within the indicated regions. (n=3). (FIG. 11E) TiNK cells and paired PB-NK cells from GBM patients were cultured in the presence or absence of galunisertib for 12 hours. The bar graphs summarize the mean fluorescence intensity (MFI) for their p-Smad⅔ expression. Paired t test was performed to determine statistical significance (n=3). (FIG. 11F) Specific lysis (^51Cr release assay) of K562 targets by NK cells. After 48 hours of culture alone (blue lines) or with GSCs, healthy donor NK cells were either left with GSCs (red lines), or purified and re-suspended in media for another 48 hours (black lines). NK cells were then collected and used for ^51Cr release assay (n=4). (FIG. 11G) Specific lysis (^51Cr release assay) of K562 targets by NK cells. After 48 hours of culture alone (blue lines) or with GSCs, healthy donor NK cells were either left with GSCs ([…]) or purified and cultured in SCGM media plus 5 ng/ml IL-15 with (black lines) or without galunisertib (10 μM) (gray lines) for […]. At the end of the culture period, their cytotoxicity was tested against k562 targets by ^51Cr release assay (n=4).
NK cells were cultured either with GSCs in a 1:1 ratio or alone for 48 hours. After 48 hours of co-incubation, NK cells were then either purified again by bead selection and resuspended in SCGM media or remained in culture with GSCs for an additional 48 hours and then used for ^51Cr release assay. In a second assay, after reselection, NK cells were cultured for another 5 days in SCGM in the presence of 5 ng/ml IL-15 with or without 10 μM galunisertib before use for ^51Cr release assay.

[2] = tested on: TGF-β1 Smad⅔ signaling pathway in NK cells; assay: Phospho-Smad⅔ assay in NK cells co-cultured with GSCs; type: cell-based, human; conditions: for p-Smad⅔ expression (MFI) in NK cells co-cultured with GSCs: healthy control NK cells + GSCs, inhibitor 10 μM
Experimental: (§1) GSCs and purified NK cells were co-cultured for 48 hours in the presence of anti-TGFβ 123 (5 μg/ml) (R&D), HLA-ABC blocking antibody (clone W 6/32, Biolegend), CD44 blocking antibody (clone IM7, Biolegend), ILT-2 (CD85J) blocking antibody (clone HP-F1, ThermoFisher), CD155 blocking antibody (clone D171, GenTex), CD112 blocking antibody (clone TX31, Biolegend), 10 μM LY2109761, 10 μM galunisertib (LY2157299), 10 μM Cilengitide (Cayman Chemical) or 1 μM MMP-2/MMP-9 inhibitor I (Millipore). Cytotoxicity assays were then performed as described above.
NK cells were stained with Live/dead-aqua and CD56 ECD (Beckman Coulter) for 20 min in the dark at RT, washed with PBS fixed for 10 min in the dark. After one wash, the cells were permeabilized (Beckman Coulter kit) and stained with p-(5465/5467)-Smad2/p-(5423/5425)/Smad3-Alexa 647 mAb Phosflow antibody (BD Biosciences) for 30 minutes at room temperature. Cells incubated with 10 ng/ml recombinant TGF-β for 45 minutes in 37° C. were used as positive control.

K562 targets = type: cell-based, human; conditions: 48 hours
Experimental: (§2) NK cells were co-cultured for 5 hours with K562 or GSCs target cells at an optimized effector:target ratio of 5:1 together with CD107a PE-CF594 (BD Biosciences), monensin (BD GolgiStopTM) and BFA (Brefeldin A, Sigma Aldrich). NK cells were incubated without targets as the negative control and stimulated with PMA (50 ng/mL) and ionomycin ([…], Sigma Aldrich) as positive control. Cells were collected, washed and stained with surface antibodies (mentioned above), fixed/permeabilized (BD Biosciences) and stained with IFN-7 v450 and TNF-α Alexa700 (BD Biosciences) antibodies.
(§3) NK cell cytotoxicity was assessed using chromium (siCr) release assay. Briefly, K562 or GSCs target cells were labeled with siCr (PerkinElmer Life Sciences, Boston, Mass.) at 50 μCi/5×10^5 cells for 2 hours. ^51Cr-labeled K562/GSC targets (5×105) were incubated for 4 h with serially diluted magnetically isolated NK cells in triplicate. Supernatants were then harvested and analysed for ^51Cr content.
For studies of NK cell suppression by GSCs and human astrocytes, magnetically selected healthy NK cells were cultured in Serum-free Stem Cell Growth Medium (SCGM; CellGro/CellGenix) supplemented with 5% glutamine, 5 μM HEPES (both from GIBCO/Invitrogen), and 10% FCS (Biosera) in 96-well flat-bottomed plates (Nunc) at 100,000/100D11. NK cells were co-cultured either alone (positive control) or with GSCs or astrocytes at a 1:1 ratio for 48 hours at 37° C. before performing functional assays to assess NK cells cytotoxicity.
as §1

GSC targets = assay: NK cell functional assay (51Cr release; CD107a, IFN-γ, TNF-α) against GSC targets after co-culture with GSCs; type: cell-based, human; conditions: 48 hours co-culture with GSCs 1:1; inhibitor 10 μM
Experimental: as §2, §3
For studies of NK cell suppression by GSCs and human astrocytes, magnetically selected healthy NK cells were cultured in Serum-free Stem Cell Growth Medium (SCGM; CellGro/CellGenix) supplemented with 5% glutamine, 5 μM HEPES (both from GIBCO/Invitrogen), and 10% FCS (Biosera) in 96-well flat-bottomed plates (Nunc) at 100,000/100D11. […]

soluble TGF-β1 = assay: TGF-β ELISA of NK cell/GSC co-culture supernatant; type: cell-based, human; conditions: NK cells + GSCs, cilengitide 10 μM, 48 hours
Experimental: NK cells and GSCs were either co-cultured or cultured alone for 48 hours in serum free SCGM growth medium. After 48 hours, supernatants were collected and secretion of TGF R and MMP2/3/9 was assessed in the supernatant by TGFβ1 ELISA kit (R&D systems) or MMP2/3/9 luminex kit (eBiosciences) as per the manufacturer's protocol.

patient-derived GSCs = assay: Xenogeneic (PDX) NSG mouse model of GBM; type: in vivo
Experimental: To test this prediction, a PDX mouse model of patient-derived GSC was used, in which, ffLuc+ patient-derived GSCs (0.5×10^6) were stereotactically implanted on day 0 through a guide-screw into the right forebrain of NOD/SCID/IL2Rγc null mice (n=4-5 per group). After 7 days, the mice were treated intratumorally with 2.0×10^6 human NK cells every 7 days for 11 weeks (FIG. 5A) with either galunisertib to block the TGF-β signaling or cilengitide to block the integrin pathway. Galunisertib was administered five times a week by oral gavage and cilengitide three times a week by intraperitoneal injection. Animals implanted with tumor that were either untreated or received NK cells alone, galunisertib alone or cilengitide alone served as controls.
To assess the anti-tumor effect of NK cells against GSCs in vivo, a NOD/SCID IL-2R7null (NSG) human xenograft model (Jackson Laboratories, Bar Harbor, Me.) was used. Intracranial implantation of GSCs into male mice was performed as previously described^55. A total of 60 mice were used. 0.5×10^5 GSCs were implanted intracranially into the right frontal lobe of 5 week old NSG mice using a guide-screw system implanted within the skull. To increase uniformity of xenograft uptake and growth, cells were injected into 10 animals simultaneously using a multiport Microinfusion Syringe Pump (Harvard Apparatus, Holliston, Mass.). Animals were anesthetized with xylazine/ketamine during the procedure. For in vivo bioluminescent imaging, GSCs were engineered to express luciferase by lentivirus transduction. Kinetics of tumor growth was monitored using weekly bioluminescence imaging (BLI; Xenogen-IVIS 200 Imaging system; Caliper, Waltham, Mass.). Signal quantitation in photons/second (p/s) was performed by determining the photon flux rate within standardized regions of interest (ROI) using Living Image software (Caliper). […] expanded donor peripheral blood NK cells^56 were injected intracranially via the guide-screw at day 7 post tumor implantation, and then every 7 days for 11 weeks. Mice were treated with either cilengitide or galunisertib (both from MCE Med Chem Express, Monmouth Junction, NJ) in the presence or absence of intracranial NK cell injection. Cilengitide was administered intraperitoneally 3 times a week starting at day 1 (250 μg/100 μl PBS) while galunisertib was administered orally (75 mg/kg) by gavage 5 days a week starting at day 1 (see FIG. 5A). […]
Brain tissue specimens from untreated control mice, mice treated with either NK cells alone, cilengitide alone, galunisertib alone or with combination therapy of NK+ cilengitide or NK+ galunisertib were collected. […] Sections lacking tumor were also evaluated for evidence of meningoencephalitis using a Leica DM 2500 light microscope by a board-certified veterinary pathologist. […]

[3] = tested on: NKG2D, CD9, CD103 on TiNKs; assay: Flow cytometry of TiNKs extracted from mouse brain tumor; type: in vivo, mouse (NSG)
Text: FIG. 20. […] Heat map representation of the surface markers NKG2D, CD9, CD103, PD-1 and CD69. Once the mice were sacrificed, the brain tissue was processed and TiNKs were extracted from the GBM tumor. The cells we then stained for the indicated surface markers and analyzed using flow cytometry. The expression is presented as percentage of the cells expressing each marker within the total NK cell population.
Brain tissue from the animals was collected and NK cells were isolated using a percoll (GE Healthcare) gradient fallowing protocol described by Pino et al^57. Briefly, brain tissue was dissociated using a 70 μm cell strainer (Life Science, Durham, N.C.). Cell suspension was re suspended in a 30% isotonic percoll solution and layer on top of a 70% isotonic percoll solution. Cells were centrifuged at 500 G for 30 minutes and 18 °C with no brake. 2-3 ml of the 70%-30% interface was collected in a clean tube and washed with PBS 1X. After this procedure, cells were ready for immunostaining with mouse CD45, human CD45, CD56, CD3, CD103, CD9, CD69, PD-1 and NKG2D all from Biolegend.

Molecule: IL-15: activating cytokine
- reversal of GSC-induced dysfunction of HC-NK cells ([1]; NK cells purified after 48 hours with GSCs, then IL-15 5 ng/ml with or without galunisertib 10 μM): did not reverse the dysfunction of HC-NK cells induced by GSCs
- restoration of TiNK function (specific lysis of K562; CD107, IFN-γ, TNF-α) ([1]; TiNKs cultured 24 hours, galunisertib 10 μM or IL-15 5 ng/ml): failed to inactivate the TGF-β1 Smad⅔ signaling pathway and restore NK cell dysfunction
- TGF-β1 Smad⅔ signaling in TiNKs ([1]; TiNKs from GBM patients cultured ex vivo, galunisertib 12 hours or IL-15): failed to inactivate the TGF-β1 Smad⅔ signaling pathway

Molecule: O=C(O)[C@@H](Cc1ccccc1)NS(=O)(=O)c1ccc(-c2ccccc2)cc1 [MMP 2/9 inhibitor]
- p-Smad⅔ levels in NK cells with MMP 2/9 inhibitor ([2]; NK cells with or without GSCs, inhibitor 1 μM): decreased p-Smad⅔ levels
- NK cell function in cultures lacking GSCs (K562 targets; MMP 2/9 inhibitor 1 μM): did not affect NK cell function in cultures lacking GSCs

Molecule: c1ccc(-c2nn3c(c2-c2ccnc4cc(OCCN5CCOCC5)ccc24)CCC3)nc1 [LY2109761]
- GSC-induced NK cell dysfunction: natural cytotoxicity against GSC targets (GSC targets): preserving the natural cytotoxicity of NK cells against K562 or GSC targets
- p-Smad⅔ expression (MFI) in NK cells co-cultured with GSCs [2]: prevented GSCs from activating the TGF-β1 Smad⅔ signaling pathway in NK cells
- NK cell function (CD107a, IFN-γ, TNF-α response to K562), NK cells without GSCs (K562 targets; NK cells alone, inhibitor 10 μM): neither inhibitor affected NK cell function

Molecule: CC(C)[C@H]1C(=O)N[C@@H](CCCN=C(N)N)C(=O)NCC(=O)N[C@@H](CC(=O)O)C(=O)N[C@H](Cc2ccccc2)C(=O)N1C [cilengitide]
- soluble TGF-β1 levels in supernatant (soluble TGF-β1): significantly decreased levels of soluble TGF-β1; also recorded: decreased TGF-β production
- tumor bioluminescence (BLI), first experiment (patient-derived GSCs; NK cells intratumorally every 7 days for 11 weeks, galunisertib oral 5 times a week, cilengitide i.p. three times a week): tumor bioluminescence rapidly increased
- NK-mediated GBM killing / efficacy in PDX model of GBM (summary statements) (patient-derived GSCs; mouse, in vivo): enhances NK-mediated GBM killing in vivo
- surface marker expression on TiNKs harvested after sacrifice [3]: protects NK cells from TGF-β induced inhibitory phenotype in vivo
- p-Smad⅔ expression (MFI) in NK cells co-cultured with GSCs [2]: significantly decreased; also recorded: diminished Smad⅔ phosphorylation
